Data from ChEMBL document CHEMBL2029343, “Stereoselective synthesis of alpinoid-C and its analogues and study of their cytotoxic activity against cancer cell lines” (Bioorg Med Chem Lett, 2012).

How the values were obtained:
Assay type in all cases: functional, cell-based
COLO 205 = assay: Antiproliferative activity against human COLO205 cells after 48 hrs by MTT assay; settings: COLO 205, 48 h
HepG2 = assay: Antiproliferative activity against human HepG2 cells after 48 hrs by MTT assay; settings: HepG2, 48 h
B16-F10 = assay: Antiproliferative activity against mouse B16F10 cells after 48 hrs by MTT assay; settings: B16-F10, 48 h
U-937 = assay: Antiproliferative activity against human U937 cells after 48 hrs by MTT assay; settings: U-937, 48 h
THP-1 = assay: Antiproliferative activity against human THP1 cells after 48 hrs by MTT assay; settings: THP-1, 48 h

IC50 (COLO 205)	IC50 (HepG2)	IC50 (B16-F10)	IC50 (U-937)	IC50 (THP-1)	Structure (SMILES)
0.43 µM	4.76 µM	18.7 µM			COc1cc([C@@H]2c3cc4c(cc3[C@@H](O[C@@H]3O[C@@H]5CO[C@@H](C)O[C@H]5[C@H](O)[C@H]3O)[C@H]3COC(=O)[C@H]23)OCO4)cc(OC)c1O [ETOPOSIDE]
195 µM	185 µM	130 µM	139 µM	120 µM	O=C(/C=C/[C@H](O)Cc1ccccc1)CCc1ccccc1
498 µM	355 µM	337 µM	168 µM	195 µM	O=C(/C=C/[C@@H](O)Cc1ccccc1)CCc1ccccc1
11.1 µM	32.6 µM	38.1 µM	22.3 µM	7.53 µM	COc1ccc(CCC(=O)/C=C/[C@H](O)Cc2ccccc2)cc1OC
7.21 µM	53.5 µM	96.9 µM	31.9 µM	32.3 µM	COc1ccc(CCC(=O)/C=C/[C@@H](O)Cc2ccccc2)cc1OC
